Tests used:
Mythimna separata = assay: Test Example 1: efficacy test on Mythimna separata (artificial diet); assay type: in vivo; conditions: 0.8 g artificial diet mixed with 1 μl emulsion (I) (5% active ingredient); second instar larvae; 25° C.; fifth day
Method: (§1) 5 parts of the compound of the present invention, 93.6 parts of dimethylformamide, and 1.4 parts of polyoxyethylene alkylaryl ether were mixed and dissolved to prepare an emulsion (I) with 5% the active ingredient.
(§2) The insecticidal rate and the control rate were calculated by the following Equation. Insecticidal rate (%)=(number of dead insects/number of test insects)×100 Control rate={1−(Nt)/(Nc)}×100
0.8 g of commercially available artificial diet (Insector LFS, manufactured by Nosan Corp.) and Emulsion (I) 1 μl were well mixed and 0.2 g per each treatment group was packed in a plastic test container (1.4 ml) to prepare test feed. Two Mythimna separata second instar larvae were inoculated into each treatment group and sealed with a plastic lid. The container was placed in a thermostatic chamber at 25° C., and the insecticidal rate and food intake were examined on the fifth day. The test was performed twice. Further, a test conducted under the same conditions except that the compound of the present invention was removed from the emulsion (I) was performed as a vehicle control group.

Aphis gossypii = assay: Test Example 11: efficacy test on Aphis gossypii (rooting treatment test); assay type: in vivo; conditions: 8 ppm; hydroponic culture of cucumber seedlings (root treatment); 6 days
Method: as §1, §2
The cucumber seedlings raised in a small pot were drawn out from the small pot, the soil adhering to the root portion was washed off with tap water, and the root portion was dipped in tap water and hydroponically cultivated. Cucumber seedlings were inoculated with Aphis gossypii […]. Emulsion (I) was diluted with water to obtain a diluted solution having a concentration of the compound of the present invention of 8 ppm. The tap water was replaced with the diluent and the hydroponic culture with the diluent was continued in a thermostatic chamber at a temperature of 25° C. and a humidity of 60%. When 6 days passed from the start of hydroponic culture with the diluent, life and death determination on Aphis gossypii was performed and the insecticidal rate was calculated. The test was performed twice.

housefly = assay: Test Example 12: efficacy test on housefly; assay type: in vivo; conditions: 100 ppm on cubic sugar; female adults; 25° C.; 24 hours
Method: as §2
The compound of the present invention was diluted with acetone and added dropwise to 1 g of cubic sugar such that the concentration was set to be 100 ppm. The cubic sugar was placed in a plastic cup, and ten housefly female adults were released and capped. After storage at 25° C. and 24 hours passing from releasing, life and death determination was performed and the insecticidal rate was calculated. The test was performed twice.

Plutella xylostella = assay: Test Example 13: efficacy test on Plutella xylostella (soil immersion test); assay type: in vivo; conditions: 500 ppm, 10 ml soil irrigation of chingengsai seedlings; adults released after 7 days; counted 7 days after release
Method: as §1, §2
Nt: Number of parasites in spray treatment group
Nc: Number of parasites in untreated group
Emulsion (I) was diluted with water such that the concentration of the compound of the present invention was set to be 500 ppm to obtain a test solution. 10 ml of the test solution was irrigated to the stocker at chingengsai seedlings (seventh true leaf development stage) planted in a small pot and placed in a greenhouse at 25° C. for 7 days. Chingengsai seedlings were transferred into glass greenhouse and 300 adults of Plutella xylostella per 50 chingengsai were released in glass greenhouse. When 7 days passed after release, the number of surviving Plutella xylostella infested in Chingengsai seedlings was counted and the control rate was calculated. The test was performed twice.

Ornithodoros moubata = assay: Test Example 16: feeding effect test on Ornithodoros moubata; assay type: in vivo; conditions: 10 ppm in defibrin blood of sheep; tritonymphs; 14 days after blood sucking
Method: as §2
A DMSO solution of the compound of the present invention was mixed with the defibrin blood of sheep to obtain a mixed solution of 10 ppm. 2 ml of this mixed solution was placed in a container and capped with a parafilm membrane. In addition, 20 tritonymphs of Ornithodoros moubata were released and allowed to suck the blood through a parafilm membrane for about 30 minutes. The nymphs were transferred to a storage container and incubated in a thermostatic chamber at a temperature of 28° C. and a humidity of 80%, and the life and death and developmental stage were observed 14 days after blood sucking. The test was performed twice.

Rhipicephalus microplus = assay: Test Example 17: contact effect test on Rhipicephalus microplus; assay type: in vivo; conditions: 100 ppm test solution; larvae; 24 hours after treatment
Method: as §2
A DMSO solution of the compound of the present invention was diluted with water to obtain a test solution at 100 ppm. This drug solution was dropped into a container containing 20 larvae of Rhipicephalus microplus and incubated in a thermostatic chamber at a temperature of 28° C. and a humidity of 80%. The larvae's life and death were determined 24 hours after the drug treatment. The test was performed twice.

Lucilia cuprina larvae = assay: Test Example 18: contact/feeding effect test on Lucilia cuprina larvae; assay type: in vivo; conditions: 1000 ppm in horse meat, 48 hours
Method: as §2
A DMSO solution of the compound of the present invention was mixed with horse meat to obtain a mixture of 1000 ppm. 20 Lucilia cuprina larvae were introduced into the test tube with the mixture. The mixture was incubated in a thermostatic chamber at a temperature of 28° C. and a humidity of 80%, and the larvae's life and death were determined 48 hours after the start of the test. The test was performed twice.

Aedes aegypti larvae = assay: Test Example 19: contact/feeding effect test on Aedes aegypti larvae; assay type: in vivo; conditions: final concentration 10 ppm; first instar larvae; 48 hours
Method: as §2
A DMSO solution of the compound of the present invention was diluted with water to obtain a diluted solution of 100 ppm. 10 Aedes aegypti first instar larvae were placed in each well of a 96-well microtiter plate together with breeding water, 1/10 of 100 ppm diluted solution were added and tested at a final concentration of 10 ppm. The mixture was incubated in a thermostatic chamber at a temperature of 28° C. and a humidity of 80%, and the larvae's life and death were determined for 48 hours after the drug treatment. The test was performed twice.

Structure (SMILES) | feeding amount in comparison with the vehicle control group (Mythimna separata) | other results
CCS(=O)(=O)c1cc(C(F)(F)F)cnc1-n1ncc(C=C(Cl)C(F)(F)F)c1C (mixture of isomers) [10-2] | ≤ 10% | 
CCS(=O)(=O)c1cccnc1-n1ncc(C=C(Cl)C(F)(F)F)c1C (mixture of isomers) [10-3] | ≤ 10% | 
CCS(=O)(=O)c1ccc(-n2cncn2)nc1-n1ncc(C=C(Cl)C(F)(F)F)c1C (mixture of isomers) [10-4] | ≤ 10% | 
CCS(=O)(=O)c1cc(C(F)(F)F)ccc1-c1ncc(C=C(Cl)C(F)(F)F)n1C [1-1, 5-(2-Chloro-3,3,3-trifluoroprop-1-en-1-yl)-2-(2-(ethylsulfonyl)-4-(trifluoromethyl)phenyl)-1-methyl-1H-imidazole] |  | insecticidal rate (Aphis gossypii): ≥ 80%; insecticidal rate (housefly): ≥ 80%; control rate (Plutella xylostella): ≥ 80%; insecticidal rate (Ornithodoros moubata): ≥ 90%; insecticidal rate (Rhipicephalus microplus): ≥ 90%; insecticidal rate (Lucilia cuprina larvae): ≥ 90%; insecticidal rate (Aedes aegypti larvae): ≥ 90%
CCS(=O)(=O)c1cc(C(F)(F)F)ccc1-c1ncc(/C=C/C(F)(F)F)n1C [1-10] | ≤ 10% | 
CCS(=O)(=O)c1ccc(-n2cncn2)nc1-c1ncc(C=C(Cl)C(F)(F)C(F)(F)F)n1C [4-10] | ≤ 10% | 
CCS(=O)(=O)c1ccc(-n2cncn2)nc1-n1ncc(C=C(Cl)C(F)(F)C(F)(F)F)c1C [10-5] | ≤ 10% | 
CCSc1cccnc1-n1ncc(C=C(Cl)C(F)(F)C(F)(F)F)c1C [10-6] | ≤ 10% | 
CCS(=O)(=O)c1cccnc1-n1ncc(C=C(Cl)C(F)(F)C(F)(F)F)c1C [10-7] | ≤ 10% | 
CCS(=O)(=O)c1ccc(-n2cnc(N)n2)nc1-n1ncc(C=C(Cl)C(F)(F)C(F)(F)F)c1C [10-10] | ≤ 10% | 
CCS(=O)(=O)c1ccc(-n2ncnc2N)nc1-n1ncc(C=C(Cl)C(F)(F)C(F)(F)F)c1C [10-11] | ≤ 10% | 
CCS(=O)(=O)c1cc(C(F)(F)F)ccc1-n1ncc(C(=O)On2nnc3ccccc32)c1C [15-2] |  | melting point: 211 to 215 °C
CCSc1cc(C(F)(F)F)ccc1-c1ncc(C(=O)N2CC(F)(F)C(F)(F)C2)n1C [15-3] |  | melting point: 155 to 156 °C
